# Measured values: US10310377B2, “Material for forming film for lithography, composition for forming film for lithography, film for lithography, pattern forming method and purification method” (Mitsubishi Gas Chemical Company, Inc., priority 2014, dated 2019)
# Tests used:
# [1] = Thermogravimetric measurement (TG), 15% thermal weight loss temperature; type: physicochemical
# [2] = Solubility in PGME, PGMEA, CPN and CHN at 23° C.
# Description: Herein, the solubility in PGME and/or PGMEA, and/or CPN, and/or CHN is defined as “Mass of resin/(Mass of resin+Mass of solvent)×100 (% by mass)”.
# The amount of each compound dissolved in 1-methoxy-2-propanol (PGME), propylene glycol monomethyl ether acetate (PGMEA), cyclopentanone (CPN), and cyclohexanone (CHN) was measured at 23° C., and the results were evaluated according to the following criteria.
# Evaluation A: 10% by mass or more
# Evaluation B: less than 10% by mass
# [3] = cyclopentanone and cyclohexanone
# [4] = 1-methoxy-2-propanol and propylene glycol monomethyl ether acetate
Compound,15% thermal weight loss temperature [1],"solubility in CPN and CHN [2, 3]","solubility in CPN and CHN (Evaluation) [2, 3]","solubility in PGME and PGMEA [2, 4]","solubility in PGME and PGMEA (Evaluation) [2, 4]"
"c1ccc2c(c1)c1ccccc1c1c3ccccc3c3ccccc3c21 [DBC, dibenzo[g,p]chrysene]",≥ 400 °C,≥ 10 % by mass,A (10% by mass or more),,
tetraallyloxydibenzochrysene [TAODBC],,,,≥ 10 % by mass,A (10% by mass or more)
